Assay results from patent publication US10864273B2, “Thiobase compounds for photodynamic therapy” (CASE WESTERN RESERVE UNIVERSITY, priority 2015, dated 2020).
Read-outs that look alike come from different tables or passages of the source.

Legend:
[1] = Femtosecond broadband transient absorption spectroscopy of the thiothymine series (intersystem crossing, triplet yield); type: physicochemical; conditions: for τISC intersystem crossing lifetime: probe 600 nm
Procedure: Femtosecond transient absorption spectroscopy was performed using a Ti— Sapphire regenerative amplifier laser system (Libra-HE, Coherent, Inc.; 800 nm, 100 fs, 4.0 W at 1 kHz). 2.6 W of the 800 nm beam were used to pump an optical parametric amplifier (TOPAS, Quantronix/Light Conversion) to generate the excitation beam at selected wavelengths of 320, 335, and 360 nm. Contributions to the excitation beam from other wavelengths and polarizations were removed by a reflective wavelength filter (λ-filter) and a Glan-Taylor polarizer, respectively, and the polarization was randomized using a depolarizing plate in order to prevent rotational effects from contributing to the dynamics, as described in details elsewhere.
A Helios spectrometer (Ultrafast Systems, LLC.) was used for pump-probe measurements. A fraction of the fundamental (800 nm) beam from the Libra-HE was used to generate white light continuum (WLC). The Helios spectrometer uses an optical delay line with a maximum delay of ˜3 ns for the 800 nm beam, which was used to pump a continuously-moving 2 mm CaF2 plate for generation of the WLC broadband probe pulse covering the spectral range from ˜320-700 nm. The probe light was then passed through a 730 nm low-pass dichroic optical filter, so as to block residual fundamental beam and to avoid saturating the complementary metal-oxide-semiconductor (CMOS) detectors. The probe pulse was then split into two beams, both of which were recollimated and focused into the optical fibers leading to their respective CMOS detectors. In this setup, one of the beams serves as reference, while the other is used to probe the sample of interest. A synchronized chopper wheel was used to block every other pump pulse, such that the difference in absorption between two consecutive measurements gives the transient spectrum. The excitation beam was attenuated to 1 μJ/pulse at the sample using a neutral density optical filter before entering the spectrometer. The excitation pulse was focused to a beam diameter three times larger than that of the probe beam at the sample position. Detection time windows of 20 and 200 ps were used in this work.
All solutions were prepared using pH 7.4 aqueous phosphate buffer, with a total phosphate concentration of 16 mM. The solution was continuously stirred in a 2 mm optical path length quartz cell (Starna Cells, Inc.) using a Teflon-coated magnetic stirring bar so as to bring fresh sample to the pump-probe region for each measurement. The solution in the cuvette was replaced with a fresh sample, from the same stock solution, every 5-7 scans, so that all scans had no more than 5% decrease in absorbance at the lowest-energy absorption-band maximum as determined by steady-state absorption spectroscopy.
All broadband transient absorption data were corrected for group velocity dispersion (GVD) of the WLC using a home-made LabView program (National Instruments, Inc.) as previously described. 3 Analysis of transient absorption kinetics was performed in Igor Pro 6.32A (WaveMetrics, Inc.) using the target analysis method, as described previously, and a sequential kinetic model convoluted with an instrument response function of ˜200 fs (FWHM). The instrument response was determined from the coherence signal of neat methanol generated at the sample cell. Global fitting analysis was performed using 15 to 30 representative kinetic traces covering the full range of probe wavelengths. At least three independent datasets (i.e., recorded on three different days) were used in the analysis and all uncertainties are reported as twice the standard deviation of the average lifetime. Decay associated spectra shown in FIG. 7A were extracted from the global fitting analysis of the transient decay traces taken every third probe wavelength across the entire WLC range.

[2] = pH 7.4 phosphate buffer solution; previously reported values; cited from earlier work
[3] = Estimated maximum UVA treatment depth in tissue from absorption cutoff and penetration depth curve; conditions: cutoff ε=1000 M^−1 cm^−1
From the text: Longer wavelengths of light are able to penetrate deeper into tissues due to less scattering and reduced absorption by natural biomolecules (FIG. 5). Therefore, the redshifted absorption of 2,4dtThy as compared to 4tThd opens up the possibility for it to be effectively used as a photosensitizer in deeper tissue UVA-activated therapies. The maximum treatment depth for these two compounds was estimated by defining an arbitrary absorption cutoff of ε=1000 M^−1 cm^−1 (i.e., 371 nm for 4tThd and 395 nm for 2,4dtThy; FIG. 5). […] In order to account for this, the area under the penetration depth curve (FIG. 5) was integrated up to the respective absorption cutoff for each compound. Using this integration method the total increase in treatment depth of 2,4dtThy relative to 4tThd was determined to be about 67%. This increase likely serves as an upper bound limit for the actual relative increase because the molar absorptivity coefficients of the compounds will no doubt play a role. However, because the absorption of radiation at a given wavelength is not only dependent on a photosensitizer's molar absorptivity coefficients but also on its concentration in the tissue, our best estimation is that 2,4dtThy could facilitate UVA-activated treatment in tissues 23 to 67% deeper than those that can be effectively treated by 4tThd.

[4] = Singlet oxygen quantum yield by phosphorescence at 1270 nm, thiothymine series; type: physicochemical; conditions: for ΦΔ singlet oxygen quantum yield: O2-saturated acetonitrile solution, 355 nm excitation, phenalenone standard
Procedure: Singlet oxygen phosphorescence measurements were performed using a modified Fluorolog-3 spectrometer (HORIBA, Jobin Yvon) in conjunction with a NIR sensitive photomultiplier tube (H10330A-45, Hamamatsu). A 450 W Xe lamp was used for steady state excitation to record singlet oxygen phosphorescence spectra and a Spectra Physics GCR-150-30 Nd:YAG laser (355 nm, 7 ns pulse width) was used for pulsed excitation to collect singlet oxygen phosphorescence decay traces at 1270 nm, which were stored on a digital oscilloscope (TDS 360, Tektronics).
O2-saturated acetonitrile solutions of the thiobases and standard (phenalenone) with matching absorbance at 355 nm (O.D.=0.3 at 1 cm optical path length) were prepared. The measurements were performed in a 1×1 cm quartz cell. Singlet oxygen quantum yields were determined from the phosphorescence intensity at 1270 nm at the end of the laser pulse using phenalenone as standard (ΦΔ=0.98).
While ultrafast internal conversion to the ground state and the low triplet yield in thymidine provide the nucleobase with its high degree of photostability, the near-unity triplet yields in the thiothymine series account for their potent photo-sensitization properties. We have obtained evidence for significant photoreactivity of these triplet states by performing time-resolved energy transfer experiments to molecular oxygen, thus generating singlet oxygen, as monitored by its characteristic phosphorescence at 1270 nm (FIG. 3 and FIG. 4). The singlet oxygen quantum yields for 4tThd and 2,4dtThy were determined using phenalenone as a standard (ΦΔ=0.98) and are summarized in Table 1. It should be remarked that quantification of the singlet oxygen yield is one of the primary methods used to determine the efficacy of a prospective photosensitizer for phototherapeutic applications. To our knowledge, this is the first work to report the singlet oxygen yield of 2,4dtThy. […] Consistent with the spectroscopic analysis herein, the singlet oxygen yield of 2tThy is smaller than those of 4tThd and 2,4dtThy.

[5] = cited from earlier work
bladder cancer = conditions: in conjunction with a low dose of UVA radiation; animal models; cited from earlier work
3D human skin models = conditions: in conjunction with a low dose of UVA radiation; lower epidermis of 3D human skin models; cited from earlier work
cancerous cell lines = conditions: in conjunction with a low dose of UVA radiation; in vitro; cited from earlier work
[6] = Steady-state absorption spectroscopy, thymine series; type: physicochemical; conditions: phosphate buffer solution at pH 7.4
From the text: 2-thiothymine (2tThy, 98% purity) was obtained from AK Scientific, 4-thiothymidine (4tThd, 99% purity) was obtained from Carbosynth Ltd., and 2-thiothymidine (2tThd) and 2,4-dithiothymine (2,4dtThy) were obtained from Sigma Aldrich. All compounds were used as received. The purity of these compounds was ensured by using fluorescence spectroscopy and by comparison with the published absorption maxima and their corresponding extinction coefficients. Phosphate buffer solutions were freshly prepared using 0.12 g of sodium dihydrogen phosphate and 0.089 g of disodium hydrogen phosphate dissolved in 100 mL of ultrapure water and adjusted to pH 7.4 using a 2 M NaOH solution. Steady-state absorption spectra were measured using a Cary 100 Bio spectrometer. All absorption spectra were corrected for the solvent background by subtraction of the absorption of the solvent.
Specifically, sulfur substitution of the C2 carbonyl in thymine results in about a 10 nm redshift in the absorption maximum, whereas substitution at the C4 position results in a redshift of about 70 nm. Remarkably, double-substitution results in about a 100 nm redshift of the lowest-energy absorption band of thymidine (ΔE=9905 cm^−1), without an appreciable change in the magnitude of the extinction coefficient at the corresponding wavelengths (1×10^4 M^−1 cm^−1). Replacement of an oxygen atom by a sulfur atom in a carbonyl bond is expected to shift the absorption spectrum to the red because the thiocarbonyl is weaker than the carbonyl bond and the excited electronic states in thiocarbonyl compounds are typically found at lower energies. However, the difference in bond strengths between a carbonyl and thiocarbonyl bond cannot solely explain the large spectral shift observed between 2tThy/2tThd and 4tThd. Furthermore, the redshift in the absorption spectrum of 2,4dtThy cannot simply be expressed as a linear combination of the absorption spectra of the 2tThy/2tThd and 4tThd derivatives. […] Glycosylation of 2tThy, generating 2tThd, results in a 2 nm redshift in the absorption maximum and about 2-fold increase in the molar absorptivity coefficients (FIG. 1B). The same effect has been previously documented in the natural bases and in other thiobases. Therefore, glycosylation of 2,4dtThy to form 2,4-dithiothymidine is expected to redshift the absorption spectrum slightly and to increase the molar absorptivity coefficients.

[7] = O2-saturated acetonitrile; literature / standard value; cited from earlier work
[8] = O2-saturated acetonitrile solution; previously measured / standard value; cited from earlier work
[9] = pH 7.4 phosphate buffer solution

## Cc1cn([C@H]2C[C@H](O)[C@@H](CO)O2)c(=O)[nH]c1=S [4tThd, 4-thiothymidine]
[1]
  intersystem crossing rate increase relative to Thd: 3.2 fold
[1]; [9]
  τISC intersystem crossing lifetime: 240 ± 20 fs
[2]
  ΦT triplet quantum yield: 0.85 ± 0.15
[3]
  wavelength at arbitrary absorption cutoff: 371 nm
[4]
  1O2 yield lower than that of the corresponding thiouracil derivative: 14%
  ΦΔ singlet oxygen quantum yield: 0.42 ± 0.02
[5]; at 520 nm, previously reported, own determination in agreement
  triplet-triplet extinction coefficient: 2500 ± 700 M⁻¹ cm⁻¹
[5]; reference for relative actinometry
  reported triplet yield of the reference compound: 1.0±0.1
Bladder cancer
  treatment of bladder cancer: treat bladder cancer in animal models
3D human skin models
  induction of cytotoxic lesions: induce cytotoxic lesions in the lower epidermis of 3D human skin models
Cancerous cell lines
  killing of cancerous cell lines: effectively kill cancerous cell lines in vitro

## Cc1c[nH]c(=S)[nH]c1=S [2,4dtThy, 2,4-dithiothymine]
[1]
  increase in rate of intersystem crossing going from 2-thiothymine: 3.5 fold
  intersystem crossing rate increase relative to Thd: 4.2 fold
  triplet yield: approximately 90%
[1]; [9]
  ΦT triplet quantum yield: >0.9
  τISC intersystem crossing lifetime: 180±40 fs
[3]
  wavelength at arbitrary absorption cutoff: 395 nm
[4]
  1O2 yield lower than that of the corresponding thiouracil derivative: 6%
  singlet oxygen yield: ~50%
  ΦΔ singlet oxygen quantum yield: 0.46 ± 0.02
[6]
  maximum of lowest-energy absorption band: 363 nm
  ε at maximum of lowest-energy absorption band: ≈ 9.7×10^3 M^−1 cm^−1

## O=C1C=Cc2cccc3cccc1c23 [phenalenone]
[7]
  ΦΔ singlet oxygen quantum yield: 0.98
[8]
  ΦΔ singlet oxygen quantum yield: 0.98
